Results on one compound are retold here after BindingDB's records for doi:10.1016/0028-3908(88)90149-9 (Organon International, 1988).

In the assay the target is Norepinephrine transporter (Rattus norvegicus, UniProt Q9JIA2).

For orientation: Ki means a dissociation constant, usually derived from enzyme kinetics or from competition with a known ligand. High values mean weaker binding, low ones tighter binding. `CN1Cc2c(N)cccc2[C@H](c2ccccc2)C1` [(+/-)-2-Methyl-4-phenyl-1,2,3,4-tetrahydro-isoquinolin-8-ylamine] yielded a Ki of 15.9 nM. This lies in the double-digit nanomolar range.
